According to ChEMBL document CHEMBL5113380, “Functionalized quinoxalinones as privileged structures with broad-ranging pharmacological activities” (Eur J Med Chem, 2022):
Each block holds one compound with its values, some of them ahead of it.

Key:
[1] = target: Prostaglandin G/H synthase 1 (Homo sapiens, UniProt P23219)
[2] = organism: Homo sapiens; experiment: Inhibition of human TRK relative to control; parameters: concentration or dose not given beside the values; settings: concentration not given here
[3] = target: Glutamate receptor ionotropic, kainate 2 (Homo sapiens, UniProt Q13002); experiment: Binding affinity to GluK2 receptor (unknown origin)
[4] = target: Glutamate receptor 2 (Homo sapiens, UniProt P42262); experiment: Binding affinity to GluA2 receptor (unknown origin)
[5] = target: T1, Glutamate receptor ionotropic AMPA (Homo sapiens, UniProt P42261+P42262+P42263+P48058); experiment: Binding affinity to AMPA receptor (unknown origin); format: protein-complex assay
[6] = Binding affinity to KA receptor (unknown origin); parameters: species or system Homo sapiens
[7] = target: Glutamate [NMDA] receptor; experiment: Binding affinity to NMDA receptor (unknown origin); format: protein-complex assay, Homo sapiens
[8] = target: Human immunodeficiency virus type 1 reverse transcriptase (Human immunodeficiency virus 1) (UniProt Q72547); experiment: Inhibition of HIV1 reverse transcriptase at 10 uM relative to control
[9] = target: Human immunodeficiency virus type 1 reverse transcriptase (Human immunodeficiency virus 1) (UniProt Q72547); experiment: Inhibition of HIV1 reverse transcriptase at 100 uM relative to control
[10] = target: Human immunodeficiency virus type 1 reverse transcriptase (Human immunodeficiency virus 1, UniProt Q72547); experiment: Inhibition of HIV1 reverse transcriptase
[11] = Antioxidant activity assessed as DPPH radical scavenging activity; format: functional; settings: read-out: IC50
[12] = target: T2, Alpha amylase (Homo sapiens, UniProt P0DUB6); experiment: Inhibition of alpha-amylase (unknown origin)
T2 sequence (P0DUB6 whole entry): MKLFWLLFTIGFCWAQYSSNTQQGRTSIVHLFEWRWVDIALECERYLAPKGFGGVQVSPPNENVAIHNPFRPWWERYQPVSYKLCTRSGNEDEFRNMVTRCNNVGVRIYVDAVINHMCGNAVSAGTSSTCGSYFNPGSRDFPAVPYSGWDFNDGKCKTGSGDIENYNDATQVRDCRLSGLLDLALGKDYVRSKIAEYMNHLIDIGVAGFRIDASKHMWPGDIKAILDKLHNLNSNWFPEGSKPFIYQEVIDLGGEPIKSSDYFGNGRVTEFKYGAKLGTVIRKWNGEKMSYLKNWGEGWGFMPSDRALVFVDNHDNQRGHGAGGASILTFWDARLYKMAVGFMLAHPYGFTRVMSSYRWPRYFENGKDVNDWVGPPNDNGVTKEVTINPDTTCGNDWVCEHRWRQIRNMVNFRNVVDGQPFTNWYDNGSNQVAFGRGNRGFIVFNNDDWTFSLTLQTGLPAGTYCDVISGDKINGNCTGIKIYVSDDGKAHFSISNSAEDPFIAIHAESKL

[13] = Inhibition of palmitate-induced lipid accumulation in human HepG2 cells relative to control; format: functional
[14] = target: Glutamate receptor ionotropic, kainate 1 (Homo sapiens, UniProt P39086); experiment: Binding affinity to GluK1 receptor (unknown origin)
[15] = test system: HepG2; experiment: Antiproliferative activity against human HepG2 cells; format: functional, cell-based
[16] = test system: MCF7; experiment: Antiproliferative activity against human MCF7 cells; format: functional, cell-based
[17] = target: T1, Glutamate receptor ionotropic AMPA; experiment: Displacement of [3H]kainate from AMPA receptor (unknown origin); format: protein-complex assay
[18] = target: T1, Glutamate receptor ionotropic AMPA; experiment: Displacement of [3H]AMPA from AMPA receptor (unknown origin); format: protein-complex assay
[19] = Displacement of [3H]glycine from AMPA receptor (unknown origin); format: protein-complex assay, Homo sapiens
[20] = Antioxidant activity assessed as DPPH radical scavenging activity at 50 uM; format: functional
[21] = Antioxidant activity assessed as DPPH radical scavenging activity at 100 uM; format: functional
[22] = Inhibition of ALR2 (unknown origin); parameters: species or system Homo sapiens
[23] = Inhibition of ALR1 (unknown origin) relative to control; parameters: concentration or dose not given beside the values; settings: Homo sapiens; concentration not given here
[24] = target: Glutamate [NMDA] receptor; experiment: Displacement of [3H]glycine from NMDA receptor (unknown origin); format: protein-complex assay, Homo sapiens

Sequence of Prostaglandin G/H synthase 1 (P23219 whole entry): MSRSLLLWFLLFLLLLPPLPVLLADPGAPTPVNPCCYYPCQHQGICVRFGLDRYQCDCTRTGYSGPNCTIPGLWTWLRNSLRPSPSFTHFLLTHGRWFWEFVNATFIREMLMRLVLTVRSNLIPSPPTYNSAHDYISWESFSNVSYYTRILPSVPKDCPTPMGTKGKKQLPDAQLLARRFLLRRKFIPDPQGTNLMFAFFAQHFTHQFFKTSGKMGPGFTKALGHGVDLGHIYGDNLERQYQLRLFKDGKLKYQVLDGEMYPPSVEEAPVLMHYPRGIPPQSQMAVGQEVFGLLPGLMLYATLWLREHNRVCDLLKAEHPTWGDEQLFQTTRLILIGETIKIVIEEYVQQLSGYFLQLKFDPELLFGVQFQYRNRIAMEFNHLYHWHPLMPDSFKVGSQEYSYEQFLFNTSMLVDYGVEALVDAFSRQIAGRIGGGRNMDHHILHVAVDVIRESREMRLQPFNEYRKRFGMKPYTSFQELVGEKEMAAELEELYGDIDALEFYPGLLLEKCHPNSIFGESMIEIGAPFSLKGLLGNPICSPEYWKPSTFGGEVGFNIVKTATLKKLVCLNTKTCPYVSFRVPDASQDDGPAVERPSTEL
Sequence of Glutamate receptor ionotropic, kainate 1 (P39086 whole entry): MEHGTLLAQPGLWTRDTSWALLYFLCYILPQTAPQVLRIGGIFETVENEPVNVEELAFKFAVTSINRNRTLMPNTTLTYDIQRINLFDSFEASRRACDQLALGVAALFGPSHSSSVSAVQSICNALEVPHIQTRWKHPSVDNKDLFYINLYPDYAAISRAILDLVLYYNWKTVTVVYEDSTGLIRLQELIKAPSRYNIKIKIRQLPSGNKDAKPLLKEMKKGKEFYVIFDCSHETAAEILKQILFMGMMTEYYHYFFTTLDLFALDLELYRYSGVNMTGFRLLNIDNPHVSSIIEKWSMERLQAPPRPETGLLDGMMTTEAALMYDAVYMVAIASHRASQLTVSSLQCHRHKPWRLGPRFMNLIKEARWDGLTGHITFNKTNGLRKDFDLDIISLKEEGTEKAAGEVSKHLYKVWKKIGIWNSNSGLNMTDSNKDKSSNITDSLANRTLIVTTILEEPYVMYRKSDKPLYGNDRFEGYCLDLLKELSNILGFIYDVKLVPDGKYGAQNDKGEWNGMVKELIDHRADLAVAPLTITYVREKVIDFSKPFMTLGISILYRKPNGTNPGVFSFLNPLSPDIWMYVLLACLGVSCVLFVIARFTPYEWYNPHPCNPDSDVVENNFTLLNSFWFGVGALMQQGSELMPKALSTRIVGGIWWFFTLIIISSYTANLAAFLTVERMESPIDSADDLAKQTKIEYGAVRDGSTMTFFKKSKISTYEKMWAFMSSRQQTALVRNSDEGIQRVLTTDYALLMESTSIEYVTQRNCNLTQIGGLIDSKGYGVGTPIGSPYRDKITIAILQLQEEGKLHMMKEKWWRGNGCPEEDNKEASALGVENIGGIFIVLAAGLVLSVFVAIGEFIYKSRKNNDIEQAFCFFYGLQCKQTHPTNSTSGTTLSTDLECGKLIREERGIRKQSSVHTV
Sequence of Glutamate receptor 2 (P42262 whole entry): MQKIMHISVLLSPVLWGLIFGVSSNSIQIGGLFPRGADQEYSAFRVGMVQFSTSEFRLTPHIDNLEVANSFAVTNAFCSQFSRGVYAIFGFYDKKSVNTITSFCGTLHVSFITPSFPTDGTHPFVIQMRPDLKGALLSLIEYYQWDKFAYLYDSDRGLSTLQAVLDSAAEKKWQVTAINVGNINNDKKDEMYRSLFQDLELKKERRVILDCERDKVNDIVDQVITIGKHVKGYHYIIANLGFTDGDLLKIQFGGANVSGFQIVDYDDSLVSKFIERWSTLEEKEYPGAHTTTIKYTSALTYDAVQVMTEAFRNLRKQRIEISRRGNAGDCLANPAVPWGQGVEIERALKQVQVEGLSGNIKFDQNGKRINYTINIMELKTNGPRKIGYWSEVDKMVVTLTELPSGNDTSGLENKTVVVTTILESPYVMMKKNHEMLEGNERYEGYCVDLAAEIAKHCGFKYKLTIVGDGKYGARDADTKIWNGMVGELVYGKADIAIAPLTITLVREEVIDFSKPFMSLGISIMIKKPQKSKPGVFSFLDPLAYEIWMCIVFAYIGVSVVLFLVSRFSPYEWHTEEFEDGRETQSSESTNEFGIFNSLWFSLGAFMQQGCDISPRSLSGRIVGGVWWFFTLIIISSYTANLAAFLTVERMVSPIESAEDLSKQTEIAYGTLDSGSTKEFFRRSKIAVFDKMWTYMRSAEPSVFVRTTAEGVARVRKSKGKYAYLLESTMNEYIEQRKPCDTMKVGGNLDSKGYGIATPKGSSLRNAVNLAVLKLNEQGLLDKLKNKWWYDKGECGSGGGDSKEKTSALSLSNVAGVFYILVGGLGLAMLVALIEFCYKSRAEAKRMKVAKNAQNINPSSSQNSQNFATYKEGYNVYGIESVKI
Sequence of Glutamate receptor ionotropic, kainate 2 (Q13002 whole entry): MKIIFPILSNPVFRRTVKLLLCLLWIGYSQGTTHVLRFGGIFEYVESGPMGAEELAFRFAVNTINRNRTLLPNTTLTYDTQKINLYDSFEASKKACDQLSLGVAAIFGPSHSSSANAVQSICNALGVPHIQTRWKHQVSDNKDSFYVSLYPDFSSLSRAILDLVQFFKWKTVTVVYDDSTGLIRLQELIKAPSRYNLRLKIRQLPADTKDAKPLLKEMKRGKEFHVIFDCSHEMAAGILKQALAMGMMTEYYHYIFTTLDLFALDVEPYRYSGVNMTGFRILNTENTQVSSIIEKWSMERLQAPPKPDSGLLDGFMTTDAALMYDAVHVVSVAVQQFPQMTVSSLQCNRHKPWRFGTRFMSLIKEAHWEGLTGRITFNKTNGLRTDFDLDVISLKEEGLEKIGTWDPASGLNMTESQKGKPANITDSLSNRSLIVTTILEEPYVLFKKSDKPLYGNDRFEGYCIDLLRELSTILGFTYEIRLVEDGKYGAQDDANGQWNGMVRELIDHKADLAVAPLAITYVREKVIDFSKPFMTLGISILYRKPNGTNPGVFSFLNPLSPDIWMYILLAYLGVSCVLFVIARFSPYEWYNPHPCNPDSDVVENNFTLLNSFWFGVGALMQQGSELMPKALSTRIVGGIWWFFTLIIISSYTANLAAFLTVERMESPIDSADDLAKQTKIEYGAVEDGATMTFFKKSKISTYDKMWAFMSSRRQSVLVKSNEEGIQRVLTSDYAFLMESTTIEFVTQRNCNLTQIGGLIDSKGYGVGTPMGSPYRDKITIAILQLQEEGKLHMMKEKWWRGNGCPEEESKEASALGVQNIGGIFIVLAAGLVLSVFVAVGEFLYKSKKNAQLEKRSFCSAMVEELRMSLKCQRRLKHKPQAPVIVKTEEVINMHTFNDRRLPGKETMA

IC50 [1]: > 50 µM | inhibition [2]: 62%
Structure (SMILES): Cc1nn(-c2ccccc2)c(N(C)C)c1/C=N/Nc1nc2ccccc2nc1O

Ki [3]: 48 µM | Ki [4]: > 100 µM | IC50 [5]: > 100 µM | IC50 [6]: > 100 µM | Ki [7]: > 100 µM
Structure (SMILES): O=C(O)c1ccc(-c2ccc3[nH]c(=O)c(=O)[nH]c3c2)cc1

IC50 [1]: > 50 µM | inhibition [2]: 84%
Structure (SMILES): Cc1nn(-c2ccccc2)c(N2CCOCC2)c1/C=N/Nc1nc2ccccc2nc1O

inhibition [8]: 91% | inhibition [9]: 99% | IC50 [10]: 0.63 µM
Structure (SMILES): CCC(=O)N1CC(=O)Nc2ccccc21

IC50 [11]: 162 µM | IC50 [12]: 356.32 µM
Structure (SMILES): CC(C)c1nc2ccc(N3C(=O)CSC3c3ccc([N+](=O)[O-])cc3)cc2[nH]c1=O (centres undefined)

IC50 [12]: 395.84 µM
Structure (SMILES): O=c1[nH]c2ccccc2nc1N/N=C/c1cccs1

IC50 [10]: 0.075 µM
Structure (SMILES): COC(=O)c1sc(I)cc1S(=O)(=O)N1c2cc(Cl)ccc2NC(=O)C1C (centres undefined)

Structure (SMILES): Cc1ccc2ncc(C)nc2c1
inhibition (INH) [13]: 20%

Ki [3]: > 100 µM | Ki [14]: 12 µM | Ki [4]: > 100 µM | IC50 [5]: > 100 µM | IC50 [6]: > 100 µM | Ki [7]: > 100 µM
Structure (SMILES): O=c1[nH]c2ccc(-c3cccc(P(=O)(O)O)c3)cc2[nH]c1=O

Structure (SMILES): CN1CCNc2ccccc21
inhibition (INH) [13]: 30%

Structure (SMILES): Cc1cnc2ccccc2n1
inhibition (INH) [13]: 20%

inhibition [2]: 78% | IC50 [15]: 23.4 µM | IC50 [16]: 11.3 µM
Structure (SMILES): Cc1nn(-c2ccccc2)c(SCCCO)c1/C=N/Nc1nc2ccccc2[nH]c1=O

IC50 [10]: 0.2 µM
Structure (SMILES): COC(=O)c1sccc1S(=O)(=O)N1c2cc(F)ccc2NC(=O)C1C (centres undefined)

IC50 [17]: 0.68 µM | IC50 [18]: 9.7 µM | IC50 [19]: > 10 µM
Structure (SMILES): CC(C)CCN1CCc2c(Br)cc3nc(O)c(O)nc3c2C1

inhibition [8]: 20% | inhibition [9]: 46%
Structure (SMILES): CC(C)COC(=O)N1CC(=O)Nc2ccccc21

inhibition [8]: 7% | inhibition [9]: 56%
Structure (SMILES): CC(=O)N1CC(=O)Nc2ccccc21

Ki [3]: > 100 µM | Ki [14]: 1.3 µM | Ki [4]: > 100 µM | IC50 [5]: 30 µM | IC50 [6]: > 100 µM | Ki [7]: > 100 µM
Structure (SMILES): Cc1ccc(C(=O)O)cc1-c1ccc2[nH]c(=O)c(=O)[nH]c2c1

inhibition [8]: 37% | inhibition [9]: 64% | IC50 [10]: 64 µM
Structure (SMILES): CC(C)COC(=O)N1c2ccccc2NC(=O)[C@H]1C

IC50 [22]: 0.059 µM | inhibition [23]: 37.6%
Structure (SMILES): COc1ccc2nc(/C=C/c3ccc(O)cc3)c(=O)n(CC(=O)O)c2c1
Activity [20]: 34.3% | Activity [21]: 59.2%

Ki [24]: 13.8 µM | Ki [18]: 0.7 µM
Structure (SMILES): Cc1cc2[nH]c(=O)c(=O)n(CC(=O)O)c2cc1C

Structure (SMILES): O=C(O)Cc1cccc(-c2ccc3[nH]c(=O)c(=O)[nH]c3c2)c1
Ki [3]: > 100 µM | Ki [14]: > 100 µM | IC50 [5]: > 100 µM | IC50 [6]: > 100 µM | Ki [7]: 41 µM

IC50 [1]: > 50 µM | inhibition [2]: 74%
Structure (SMILES): Cc1nn(-c2ccccc2)c(N2CCCCC2)c1/C=N/Nc1nc2ccccc2nc1O

Ki [24]: 0.11 µM | Ki [18]: 2.1 µM
Structure (SMILES): O=C(O)Cn1c(=O)c(=O)[nH]c2cc(Cl)c(Cl)cc21

Structure (SMILES): CN1CCc2c([N+](=O)[O-])cc3[nH]c(=O)c(=O)[nH]c3c2C1
IC50 [17]: 0.368 µM | IC50 [18]: 0.063 µM | IC50 [19]: 0.37 µM

IC50 [1]: > 50 µM | inhibition [2]: 20%
Structure (SMILES): Cc1nn(-c2ccccc2)c(N2CCNCC2)c1/C=N/Nc1nc2ccccc2nc1O

Structure (SMILES): Cc1cccc2c1NC[C@H](C)N2
inhibition (INH) [13]: 30%

IC50 [1]: > 50 µM | inhibition [2]: 80%
Structure (SMILES): CC(=O)N1CCN(c2c(/C=N/Nc3nc4ccccc4nc3O)c(C)nn2-c2ccccc2)CC1

IC50 [10]: 0.07 µM
Structure (SMILES): COC(=O)c1sc(Cl)cc1S(=O)(=O)N1c2cc(Cl)ccc2NC(=O)C1C (centres undefined)
